According to patent US9284576B2, “In vitro hepatic differentiation” (Cambride Enterprise Limited, priority 2010, dated 2016):
Peptide text beside a SMILES is read from it. * marks the point of attachment. Cbz = O=C(OCc1ccccc1)*

Assays:
[1] = test system: α1-antitrypsin deficient dhIPSC derived hepatocytes; assay: proteosome blocking assay with ELISA for α1-antitrypsin; assay type: cell-based, human; settings: MG132 added to medium overnight (16 hours), A1ATD vs control hIPSC derived hepatocytes, FIG. 10
Protocol: High binding surface COSTAR 96-well plates (Corning, N.Y., USA) were coated overnight with affinity-purified rabbit polyclonal antibodies against α1-antitrypsin (Abcam 31657, Cambridge, UK) at 2 μg/ml in carbonate/bicarbonate buffer (Na2CO3/NAHCO3, pH 9.5). After washing (0.9% w/v NaCl, 0.05% v/v Tween 20), the plates were blocked for two hours in blocking buffer (PBS, 0.25% w/v BSA, 0.05% v/v Tween 20). Samples (culture medium or cells lysed in 50 μl of Nonidet lysis buffer (150 mM NaCl, 50 mM Tris-Cl, pH 7.5, 1% (v/v) Nonidet P-40), and standards (plasma purified M or Z α1-antitrypsin) were diluted in blocking buffer and 50 μl added to each well then incubated for two hours. After washing, the wells were incubated with either 9C5 or 2C1 monoclonal antibodies (1 μg/ml diluted in blocking buffer), and incubated for two hours. Bound monoclonal antibodies were detected with rabbit anti-mouse IgG HRP-labelled antibody (Sigma Aldrich, Haverhill, UK, 1:20,000) for one hour. The reaction was developed with TMB liquid substrate (Sigma Aldrich, Haverhill, UK) for 10 minutes in the dark and the reaction was stopped with 1 M H2SO4. Absorbance was read at 450 nm on a Thermo-max microplate reader (Molecular Devices, Sunnyvale, Calif., U.S.A.). […]

[2] = test system: dhIPSC derived hepatocytes; assay: Metabolic enzyme response to glucagon stimulation (qRT-PCR of PEPCK, G6P, IGFBP1); assay type: cell-based, human; settings: 100 nM glucagon hydrochloride; 0, 1, 2 and 3 hours after stimulation; FIG. 16
Protocol: dhIPSC derived hepatocytes were incubated for six hours in serum-free, high-glucose DMEM supplemented with 2 mM L-glutamine, […] penicillin, 100 ug/ml streptomycin, and 0.5% Bovine Serum Albumin (all from Sigma-Aldrich). Cells were stimulated with 100 nM glucagon […] hydrochloride (Novo Nordisk, Bagsvard, Denmark) or PBS (Sigma-Aldrich) as a negative control. Total RNA was harvested using the RNeasy Kit (Qiagen, Hilden, Germany) at 0, 1, 2 or 3 hours after stimulation and purified as per manufacturer's guidelines. Reverse transcription was performed on 1 ug RNA in a 25 μl reaction mixture containing 2000 Moloney Murine Leukemia Virus Reverse Transcriptase, 500 ng random primers and 0.5 mM deoxynucleotide triphosphates (all from Promega, Wis., Ma) as per manufacturer's guidelines. cDNA was subjected to real-time quantitative PCR on an ABI7900 detection system (Applied Biosystems, Foster City, Calif.) using Tagman PCR Mastermix (Applied Biosystems) and gene-specific forward and reverse primers and fluorogenic probes. All results were normalised to human 36B4 as a reference gene. Primers and probes for PEPCK (Hs00159918—1), G6P (Hs00609178—1) and IGFBP1 (Hs00426285 ml) were purchased as premade stocks from Applied Biosystems. Oligonucleotides for 36B4 were designed in-house and synthesised by Sigma-Aldrich (Forward, 5′-[…]-3′; Reverse, 5′-[…]-3′; Probe, 5′-[JOEE][…][TAMRA]-3′).

| Molecule | intracellular α1-antitrypsin polymers after proteasome inhibition [1] | expression of glucagon-responsive genes PEPCK, G6P and IGFBP1 [2] |
| --- | --- | --- |
| CC(C)C[C@@H](C=O)NC(=O)[C@H](CC(C)C)NC(=O)[C@H](CC(C)C)NC(=O)OCc1ccccc1 [MG132] (Cbz-Leu-Leu-Leu-aldehyde) | disease specific intracellular increase in α1-antitrypsin polymers |  |
| glucagon hydrochloride |  | induction of expression of three canonical glucagon-responsive genes |
